# Results published in patent US20030118510A1 (priority 2001, published 2003).
# Tests used:
# [1] = Intratracheal administration of 750-2 PEG insulin in rats (Example 11, P-2002-003)
# Description: (§1) The rats were lightly anesthetized using inhaled 3.0-5.0% Isoflurane (Abbott Laboratories) mixed with oxygen for approximately 5 minutes in a plexiglass anesthesia chamber. Administration was accomplished by insertion of a gavage needle (Popper & Sons Inc.; 18×3″ W2-¼ mm ball, New Hyde Park, N.Y. 11040) fitted into a 1 mL syringe into the mouth of the rat down the trachea to just above the main carina. When inserting the gavage needle into the trachea, proper insertion was detected by feeling for the roughness of the cartilage rings under the skin of the throat using the ball of the gavage needle. Doses were administered into the lungs utilizing this method, and followed by removal of the gavage needle.
# (§2) Fourteen (N=7/Group) fasted male rats (Hilltop Lab Animals, Scottsdale, Pa. (300-350 g)) with indwelling jugular vein catheters (JVC) were used for this study.
# (§3) The in-vivo rat study was conducted essentially as described in Example 8 above.
# Absolute bioavailability was calculated as follows: [formula]
# blood glucose [2] = experiment: Blood glucose following intratracheal administration of 2K PEG insulin in rats (Example 12, P-2002-010); format: in vivo, male rats; settings: i.t.
# Description: Fourteen (N=7/Group) fasted male rats (Hilltop Lab Animals, Scottsdale, Pa. (300-350 g)) with indwelling jugular vein catheters (JVC) were used for this study. […] Animal 2-3 was dropped from the study due to a clogged catheter.
# blood glucose [3] = experiment: Blood glucose following intratracheal administration of 750-1 PEG insulin in rats (Example 10, P-2002-001); format: in vivo, male rats; settings: i.t.
# Description: as §1, §2
# The in-vivo intratracheal rat study was conducted essentially as described in Example 8 above.
# blood glucose [4] = experiment: Blood glucose following intratracheal administration of 750-1 PEG insulin in rats (Example 9, P-2001-025); format: in vivo, male rats; settings: i.t.
# Description: as §1, §2, §3
# blood glucose [5] = settings: i.t.
# Description: as §1, §2
# blood glucose [6] = settings: rats, 20, 30, 40 μg/animal
substance,measurement,setting,value
750-2 PEG insulin: 750 PEG insulin composition prepared at molar ratio of PEG reagent (mPEG-SPA-750) to insulin of 3:1,TMax,"[1]; rat, in vivo",1.22 h
"2K PEG insulin: insulin pegylated in non-site specific (random) fashion with linear mPEG-succinimidyl propionate ~2,000 Daltons; mixture of mono and di-pegylated product",glucose levels at time points past about 6 hours compared with non-pegylated insulin,"blood glucose [2]; 600 μg, 900 μg and 1200 μg per animal",suppressed significantly below those of non-pegylated insulin
same,dose response of decrease in blood glucose concentration,blood glucose [2]; 300-1200 μg/animal,Good dose response
same,time point at which maximum glucose suppression was achieved,blood glucose [2]; Example 12,about 3 hours
750-1 PEG insulin: 750 PEG insulin composition prepared at molar ratio of PEG reagent (mPEG-SPA-750) to insulin of 7:1,duration of glucose suppression,"blood glucose [3]; Example 10, 80 and 160 μg/animal",> 25 h
same,"glucose levels at 8 hours, times lower than for unmodified insulin","blood glucose [3]; Example 10, 8 hours",about 1.5 times
same,"mean serum insulin and mean blood glucose concentrations following intratracheal instillation (FIG. 10, FIG. 11)","[1]; i.t., 80 μg/animal",Results similar to those in Examples 9 and 10
same,glucose suppression over the 12 hour period compared with unmodified insulin,blood glucose [4]; Example 9,significantly increased
same,onset of action (suppression of glucose),blood glucose [4]; Example 9,rapid onset of action comparable to native insulin
same,time at which glucose levels had not yet returned (duration of glucose suppression),blood glucose [4]; Example 9,> 12 h
same,time to reach maximum glucose lowering,"blood glucose [4]; Example 9, 100 μg dose",≥ 6 h
same,time to reach maximum glucose lowering,"blood glucose [4]; Example 9, 300 μg dose",≥ 8 h
same,time to reach maximum glucose lowering,"blood glucose [4]; Example 9, 500 μg dose",at least 4 hours
N^αB1-Methoxypoly(ethylene glycol)5K- propionamido-insulin [5K PEG insulin],lowering of blood glucose compared with non-pegylated insulin,blood glucose [5]; 150 μg/animal vs non-pegylated insulin 40 μg/animal,less effective than non-pegylated insulin
same,lowering of blood glucose when administered to the lung,"blood glucose [5]; 150 μg/animal, male rats",effective in lowering blood glucose
same,bioactivity (ability to lower blood glucose),blood glucose [6]; i.v.,possesses bioactivity
same,glucose levels following i.v. administration,blood glucose [6],dose dependent decrease
